Converted amounts (≈) assume the structure as drawn. Read-outs that look alike come from different tables or passages of the source.
Assays:
Format in all cases: cell-based
Candida albicans = assay: MIC by broth microdilution (CLSI M27-A3)
Candida spp. = assay: MIC and MFC by broth microdilution, summary over Candida strains; conditions: Candida test strains, except resistant strain E4
Cryptococcus spp. = assay: MIC and MFC by broth microdilution, summary over Cryptococcus strains
Cryptococcus neoformans = assay: MIC by broth microdilution (CLSI M27-A3); conditions: […]10^3 cells/mL
Cryptococcus gattii [1] = assay: MIC by broth microdilution (CLSI M27-A3); conditions: […]10^3 cells/mL
Cryptococcus gattii [2] = assay: Minimum fungicidal concentration (MFC), plating after MIC assay; conditions: Sensitive, RPMI 1640 (0.2% Glucose), […]10^3 cells/mL, 37° C.

## C[C@@H]1[C@H](O)[C@@H](C)/C=C/C=C/C=C/C=C/C=C/C=C/C=C/[C@H](O[C@@H]2O[C@H](C)[C@@H](O)[C@H](N)[C@@H]2O)C[C@@H]2O[C@](O)(C[C@@H](O)C[C@@H](O)[C@H](O)CC[C@@H](O)C[C@@H](O)CC(=O)O[C@H]1C)C[C@H](O)[C@H]2C(=O)O [AMB, amphotericin B]
Candida albicans; E4, […]10^5 cells/mL, 30°C, OD600 48 h, trial 2, read-out: MIC
  MIC: 3.4 µM
Candida albicans; Gu5, […]10^3 cells/mL, 35°C, OD600 24 h, avg.
  MIC: 2.0 µg/mL
Candida albicans; Gu5, […]10^3 cells/mL, 35°C, OD600 24 h, avg., read-out: MIC
  MIC: 2.2 µM
Candida albicans; Gu5, […]10^3 cells/mL, 35°C, OD600 24 h, trial 1
  MIC: <1.6 µg/mL
Candida albicans; Gu5, […]10^3 cells/mL, 35°C, OD600 24 h, trial 1, read-out: MIC
  MIC: <1.7 µM
Candida albicans; Gu5, […]10^3 cells/mL, 35°C, OD600 24 h, trial 2
  MIC: 3.1 µg/mL
Candida albicans; Gu5, […]10^3 cells/mL, 35°C, OD600 24 h, trial 2, read-out: MIC
  MIC: 3.4 µM
Candida albicans; Gu5, […]10^5 cells/mL, 30°C, OD600 48 h, avg.
  MIC: 0.8 µg/mL
Candida albicans; Gu5, […]10^5 cells/mL, 30°C, OD600 48 h, avg., read-out: MIC
  MIC: 0.9 µM
Candida albicans; Gu5, […]10^5 cells/mL, 30°C, OD600 48 h, trial 1
  MIC: 0.8 µg/mL
Candida albicans; Gu5, […]10^5 cells/mL, 30°C, OD600 48 h, trial 1, read-out: MIC
  MIC: 0.9 µM
Candida albicans; Gu5, […]10^5 cells/mL, 30°C, OD600 48 h, trial 2
  MIC: 0.8 µg/mL
Candida albicans; Gu5, […]10^5 cells/mL, 30°C, OD600 48 h, trial 2, read-out: MIC
  MIC: 0.9 µM
Candida albicans; K1, […]10^3 cells/mL, 35°C, OD600 24 h, avg.
  MIC: <1.6 µg/mL
Candida albicans; K1, […]10^3 cells/mL, 35°C, OD600 24 h, avg., read-out: MIC
  MIC: <1.7 µM
Candida albicans; K1, […]10^3 cells/mL, 35°C, OD600 24 h, trial 1
  MIC: <1.6 µg/mL
Candida albicans; K1, […]10^3 cells/mL, 35°C, OD600 24 h, trial 1, read-out: MIC
  MIC: <1.7 µM
Candida albicans; K1, […]10^3 cells/mL, 35°C, OD600 24 h, trial 2
  MIC: <1.6 µg/mL
Candida albicans; K1, […]10^3 cells/mL, 35°C, OD600 24 h, trial 2, read-out: MIC
  MIC: <1.7 µM
Candida albicans; K1, […]10^5 cells/mL, 30°C, OD600 48 h, avg.
  MIC: 1.6 µg/mL
Candida albicans; K1, […]10^5 cells/mL, 30°C, OD600 48 h, avg., read-out: MIC
  MIC: 1.7 µM
Candida albicans; K1, […]10^5 cells/mL, 30°C, OD600 48 h, trial 1
  MIC: 1.6 µg/mL
Candida albicans; K1, […]10^5 cells/mL, 30°C, OD600 48 h, trial 1, read-out: MIC
  MIC: 1.7 µM
Candida albicans; K1, […]10^5 cells/mL, 30°C, OD600 48 h, trial 2
  MIC: 1.6 µg/mL
Candida albicans; K1, […]10^5 cells/mL, 30°C, OD600 48 h, trial 2, read-out: MIC
  MIC: 1.7 µM
Candida albicans; SC5314, […]10^3 cells/mL, 35°C, OD600 24 h, avg.
  MIC: 4.7 µg/mL
Candida albicans; SC5314, […]10^3 cells/mL, 35°C, OD600 24 h, avg., read-out: MIC
  MIC: 5.1 µM
Candida albicans; SC5314, […]10^3 cells/mL, 35°C, OD600 24 h, trial 1
  MIC: 3.1 µg/mL
Candida albicans; SC5314, […]10^3 cells/mL, 35°C, OD600 24 h, trial 1, read-out: MIC
  MIC: 3.4 µM
Candida albicans; SC5314, […]10^3 cells/mL, 35°C, OD600 24 h, trial 2
  MIC: 6.3 µg/mL
Candida albicans; SC5314, […]10^3 cells/mL, 35°C, OD600 24 h, trial 2, read-out: MIC
  MIC: 6.8 µM
Candida albicans; SC5314, […]10^5 cells/mL, 30°C, OD600 48 h, avg.
  MIC: 0.8 µg/mL
Candida albicans; SC5314, […]10^5 cells/mL, 30°C, OD600 48 h, avg., read-out: MIC
  MIC: 0.9 µM
Candida albicans; SC5314, […]10^5 cells/mL, 30°C, OD600 48 h, trial 1
  MIC: 0.8 µg/mL
Candida albicans; SC5314, […]10^5 cells/mL, 30°C, OD600 48 h, trial 1, read-out: MIC
  MIC: 0.9 µM
Candida albicans; SC5314, […]10^5 cells/mL, 30°C, OD600 48 h, trial 2
  MIC: 0.8 µg/mL
Candida albicans; SC5314, […]10^5 cells/mL, 30°C, OD600 48 h, trial 2, read-out: MIC
  MIC: 0.9 µM
Candida spp.
  MIC and MFC values: sub-μM
Cryptococcus spp.; Cryptococcus test strains
  MIC: ~1 µM (≈ 0.924 µg/mL)
Cryptococcus spp.; Cryptococcus test strains (FLC: all strains except C21F3)
  MFC: ~1 µM (≈ 0.924 µg/mL)
Cryptococcus neoformans; B3501, 30°C, […]
  MIC: 0.8 µg/mL
Cryptococcus neoformans; B3501, 30°C, […], Table 15
  MIC: 0.9 µM
Cryptococcus neoformans; C21F3, 30°C, OD600 48 h
  MIC: 0.8 µg/mL
Cryptococcus neoformans; C21F3, 30°C, OD600 48 h, Table 15
  MIC: 0.9 µM
Cryptococcus neoformans; C. neoformans (B3501), Sensitive, RPMI 1640 (0.2% Glucose), 37° C.
  MIC: 0.8 µg/mL
Cryptococcus neoformans; C. neoformans (B3501), 30°C
  MIC: 0.9 µM
Cryptococcus neoformans; C. neoformans (C21F3), 30°C
  MIC: 0.9 µM
Cryptococcus neoformans; C. neoformans (H99), Sensitive, RPMI 1640 (0.2% Glucose), 37° C.
  MIC: 1.6 µg/mL
Cryptococcus neoformans; C. neoformans (H99), 30°C
  MIC: 1.7 µM
Cryptococcus neoformans; C. neoformans (JEC21), Sensitive, RPMI 1640 (0.2% Glucose), 37° C.
  MIC: 0.2 µg/mL
Cryptococcus neoformans; C. neoformans (JEC21), 30°C
  MIC: 0.2 µM
Cryptococcus neoformans; H99, 30°C, OD600 48 h
  MIC: 1.6 µg/mL
Cryptococcus neoformans; H99, 30°C, OD600 48 h, Table 15
  MIC: 1.7 µM
Cryptococcus neoformans; JEC21, 30°C, OD600 48 h
  MIC: 0.2 µg/mL
Cryptococcus neoformans; JEC21, 30°C, OD600 48 h, Table 15
  MIC: 0.2 µM
Cryptococcus neoformans; […], RPMI 1640 (0.2% Glucose), 37° C.
  MIC: 0.8 µg/mL
Cryptococcus gattii [1]; C751, 30°C, OD600 48 h
  MIC: ≤0.2 µg/mL
Cryptococcus gattii [1]; C751, 30°C, OD600 48 h, Table 15, read-out: MIC
  MIC: ≤0.2 µM
Cryptococcus gattii [1]; C. gattii (C751), Sensitive, RPMI 1640 (0.2% Glucose), 37° C.
  MIC: ≤0.2 µg/mL
Cryptococcus gattii [1]; C. gattii (C751), 30°C, read-out: MIC
  MIC: ≤0.2 µM
Cryptococcus gattii [1]; C. gattii (WM275), Sensitive, RPMI 1640 (0.2% Glucose), 37° C.
  MIC: 0.8 µg/mL
Cryptococcus gattii [1]; C. gattii (WM276), 30°C, read-out: MIC
  MIC: 0.9 µM
Cryptococcus gattii [1]; WM276, 30°C, OD600 48 h
  MIC: 0.8 µg/mL
Cryptococcus gattii [1]; WM276, 30°C, OD600 48 h, Table 15, read-out: MIC
  MIC: 0.9 µM
Cryptococcus gattii [2]; C. gattii (C751)
  MFC: 0.8 µg/mL (≈ 0.866 µM)
Cryptococcus gattii [2]; C. gattii (WM275)
  MFC: 3.1 µg/mL (≈ 3.35 µM)
